Assay results as given in patent publication US5445942A, “Amplification assay for hydrolase enzymes” (London Biotechnology Limited, priority 1988, dated 1995).

Key:
D-amino acid oxidase = D-amino acid oxidase (Sus scrofa, UniProt P00371); settings: same concentration as D-alanine (35 mM), pH 8.0
Excerpt: Use of apo-D-amino acid oxidase, whose holoenzyme has a pH optimum of 8.0-9.0, allows the above assay to be conducted in a single pot:
The above ingredients may be mixed beforehand and added directly too the alkaline phosphatase.

apoglucose oxidase = biological target: T1, apoglucose oxidase (Aspergillus niger, UniProt P13006); assay: Binding of FAD / FADP by apoglucose oxidase (removal of FAD traces from FADP)
T1 construct: made in house
Experimental: Apoglucose oxidase (2.5 μM) was mixed with FADP (200 μM) at room temperature. After 30 min the mixture was ultrafiltered to yield a sample of FADP containing less than 0.002% FAD.

apoenzyme = assay: Prosthetic-group activity of FADP and its interference with holoenzyme formation from apoenzyme and FAD; type: biochemical; settings: shelf-stable apoenzymes
Excerpt: In a preferred embodiment, the prosthetogen is an FAD-phosphate (FADP) and the hydrolase is a phosphatase. This procedure has the great advantage that the prosthetic group, FAD, is formed directly by action of a phosphatase enzyme on the prosthetogen, FADP, without the necessity to add any ancillary converting enzymes.
Suitable apoenzymes include apo-D-aminoacid oxidase and apoglucose oxidase as mentioned above, as well as apo-L-aminoacid oxidase, apoxanthine oxidase and other apoenzymes which will be apparent to those skilled in the art. Apo-D-aminoacid oxidase is a preferred apoenzyme for many applications since it is very shelf-stable, and has kinetic characteristics that permits the technology to be used in a `single pot` format, with all components added as a single promix to analyte-linked alkaline phosphatase. Suitable substrates for it are D-alanine, D-methionine and D-proline. For maximising the sensitivity of the invention without incorporating tail-end cycling components (see below), the use of apoglucose oxidase is advantageous, although its use requires a two stage format in which the first stage, involving hydrolysis of FADP, is operated at pH 8.0 and the second detection stage at a lower pH.

alkaline phosphatase = assay: Hydrolysis of FADP by alkaline phosphatase, product checked by anion exchange elution and apoglucose oxidase reconstitution; type: biochemical; settings: 10 mM Tris buffer pH 8.0, 1 mM MgCl2, 0.1 mM ZnCl2
Excerpt: Crude 2'(3')-FADP was isolated by FPLC on a Mono Q HR 10/10 anion exchange column (Pharmacia) with a H2 O/1M ammonium formate (pH 6.5) gradient. The fractions eluting with 0.65-0.8M ammonium formate were pooled and freeze-dried. […] Traces of FAD could be removed by treatment with a suitable apoenzyme followed by ultrafiltration to remove the macromolecules.

Sequence of D-amino acid oxidase (P00371 whole entry): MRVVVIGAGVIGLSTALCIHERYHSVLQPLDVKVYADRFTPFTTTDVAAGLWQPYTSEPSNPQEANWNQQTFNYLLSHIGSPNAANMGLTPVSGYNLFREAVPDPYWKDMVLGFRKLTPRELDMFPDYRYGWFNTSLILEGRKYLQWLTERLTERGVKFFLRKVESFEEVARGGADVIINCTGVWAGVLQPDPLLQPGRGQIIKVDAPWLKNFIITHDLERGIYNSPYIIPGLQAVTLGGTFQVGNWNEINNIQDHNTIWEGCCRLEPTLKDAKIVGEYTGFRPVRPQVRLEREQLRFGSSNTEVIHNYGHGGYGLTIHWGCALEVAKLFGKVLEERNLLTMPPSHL
T1 sequence (P13006 17-605): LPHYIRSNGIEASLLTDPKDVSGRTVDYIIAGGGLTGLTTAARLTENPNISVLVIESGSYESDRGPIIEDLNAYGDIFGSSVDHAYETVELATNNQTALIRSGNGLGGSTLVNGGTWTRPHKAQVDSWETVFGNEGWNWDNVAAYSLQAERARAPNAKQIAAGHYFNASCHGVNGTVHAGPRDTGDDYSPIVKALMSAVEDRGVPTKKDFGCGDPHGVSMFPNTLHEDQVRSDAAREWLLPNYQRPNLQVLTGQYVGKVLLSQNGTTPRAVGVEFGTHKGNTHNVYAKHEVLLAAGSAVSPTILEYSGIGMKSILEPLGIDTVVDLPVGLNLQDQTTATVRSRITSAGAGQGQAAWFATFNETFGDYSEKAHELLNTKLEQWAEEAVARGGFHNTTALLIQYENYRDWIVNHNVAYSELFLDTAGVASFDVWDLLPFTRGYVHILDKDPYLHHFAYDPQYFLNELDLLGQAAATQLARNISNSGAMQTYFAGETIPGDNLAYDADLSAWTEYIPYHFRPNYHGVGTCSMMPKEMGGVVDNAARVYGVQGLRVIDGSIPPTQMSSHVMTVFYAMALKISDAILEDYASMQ

For `CSCC[C@@H](N)C(=O)O` [D-methionine], the “rate of oxidation relative to D-alanine” value (D-amino acid oxidase) was 2.5.

For `O=C(O)[C@H]1CCCN1` [D-proline], the “rate of oxidation relative to D-alanine” value (D-amino acid oxidase) was 3.0.

`Cc1cc2nc3c(=O)[nH]c(=O)nc-3n(C[C@H](O)[C@H](O)[C@H](O)COP(=O)(O)OP(=O)(O)OC[C@H]3O[C@@H](n4cnc5c(N)ncnc54)[C@H](O)[C@@H]3O)c2cc1C` [FAD, flavin adenine dinucleotide, reference compound] was tested, and the “binding by apoglucose oxidase” value (apoglucose oxidase) was “binds FAD tightly”.

FAD-2' (3')-Phosphate [FADP] was tested, and the “binding by apoglucose oxidase” value (apoglucose oxidase) was “does not bind FADP”, the “activity per se as a prosthetic group” value (apoenzyme) was “no significant activity per se as a prosthetic group” and the “interference with formation of the holoenzyme from apoenzyme and FAD” value (apoenzyme) was “does not significantly interfere with the formation of the holoenzyme”. The “hydrolysis by alkaline phosphatase” value (alkaline phosphatase) was “acted upon by alkaline phosphatase to give a product that eluted in the same place as FAD and was able to reconstitute apoglucose oxidase”.
